{"source": "the supplement of paper PMC10307832", "data": [{"compound": "COc1cc(-c2nn([C@H]3CC[C@H](N4CCN(C(C)=O)CC4)CC3)c3ncnc(N)c23)ccc1NC(=O)c1cc2ccccc2n1C + CC1(C)CCC(c2ccc(Cl)cc2)=C(CN2CCN(c3ccc(C(=O)NS(=O)(=O)c4ccc(N[C@H](CCN5CCOCC5)CSc5ccccc5)c(S(=O)(=O)C(F)(F)F)c4)cc3)CC2)C1 [Navitoclax] (partner 0.5 µM)", "assay": "relative viability (nuclei count vs DMSO), 5 days (fraction); higher = more cells survive", "details": "first compound 0.0128 µM", "how_it_was_run": "(§1)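 Each reported value is a median over duplicate plates. It expresses relative viability: treated-well nuclei count divided by vehicle-well nuclei count. Lung cancer cell lines in 1536-well plates were dosed by pin tool a day after seeding, alone with one drug or with a fixed anchor-drug dose plus five library-drug doses (not always all listed) in √10 steps, and nuclei were counted after 5 days.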", "values": [{"cell line": "NCI-H460", "relative viability": 1.2}, {"cell line": "NCI-H2347", "relative viability": 0.864}, {"cell line": "SK-LU-1", "relative viability": 0.95}, {"cell line": "NCI-H1395", "relative viability": 0.963}, {"cell line": "201T", "relative viability": 1.27}, {"cell line": "NCI-H1915", "relative viability": 0.851}, {"cell line": "HCC-827", "relative viability": 1.01}, {"cell line": "LXF-289", "relative viability": 1.01}, {"cell line": "NCI-H23", "relative viability": 0.825}, {"cell line": "NCI-H647", "relative viability": 1.29}, {"cell line": "CAL-12T", "relative viability": 1.2}, {"cell line": "NCI-H1651", "relative viability": 1.09}, {"cell line": "EPLC-272H", "relative viability": 1.13}, {"cell line": "NCI-H2228", "relative viability": 0.825}, {"cell line": "NCI-H1355", "relative viability": 1.02}]}, {"compound": "COc1cc(-c2nn([C@H]3CC[C@H](N4CCN(C(C)=O)CC4)CC3)c3ncnc(N)c23)ccc1NC(=O)c1cc2ccccc2n1C + CC1(C)CCC(c2ccc(Cl)cc2)=C(CN2CCN(c3ccc(C(=O)NS(=O)(=O)c4ccc(N[C@H](CCN5CCOCC5)CSc5ccccc5)c(S(=O)(=O)C(F)(F)F)c4)cc3)CC2)C1 [Navitoclax] (partner 0.5 µM)", "assay": "relative viability (nuclei count vs DMSO), 5 days (fraction); higher = more cells survive", "details": "first compound 0.04048 µM", "how_it_was_run": "as §1", "values": [{"cell line": "COR-L 105", "relative viability": 0.813}, {"cell line": "LOU-NH91", "relative viability": 0.661}, {"cell line": "NCI-H2170", "relative viability": 0.749}, {"cell line": "NCI-H2405", "relative viability": 0.639}, {"cell line": "HOP-62", "relative viability": 1.18}, {"cell line": "LU99A", "relative viability": 0.842}, {"cell line": "BEN", "relative viability": 0.261}, {"cell line": "HARA", "relative viability": 1.24}, {"cell line": "HCC-78", "relative viability": 0.901}, {"cell line": "NCI-H322M", "relative viability": 1.09}, {"cell line": "LCLC-97TM1", "relative viability": 0.388}, {"cell line": "NCI-H2009", "relative viability": 1.16}, {"cell line": "A-427", "relative viability": 0.763}, {"cell line": "NCI-H441", "relative viability": 0.798}, {"cell line": "NCI-H1734", "relative viability": 0.719}, {"cell line": "NCI-H460", "relative viability": 1.41}, {"cell line": "NCI-H2347", "relative viability": 0.794}, {"cell line": "SK-LU-1", "relative viability": 0.801}, {"cell line": "NCI-H1395", "relative viability": 1.26}, {"cell line": "201T", "relative viability": 1.3}, {"cell line": "NCI-H1915", "relative viability": 0.755}, {"cell line": "HCC-827", "relative viability": 1.06}, {"cell line": "LXF-289", "relative viability": 0.886}, {"cell line": "NCI-H23", "relative viability": 0.549}, {"cell line": "NCI-H647", "relative viability": 1.18}, {"cell line": "CAL-12T", "relative viability": 1.41}, {"cell line": "NCI-H1651", "relative viability": 1.07}, {"cell line": "EPLC-272H", "relative viability": 1.05}, {"cell line": "NCI-H2228", "relative viability": 1.17}, {"cell line": "NCI-H1355", "relative viability": 0.923}]}, {"compound": "COc1cc(-c2nn([C@H]3CC[C@H](N4CCN(C(C)=O)CC4)CC3)c3ncnc(N)c23)ccc1NC(=O)c1cc2ccccc2n1C + CC1(C)CCC(c2ccc(Cl)cc2)=C(CN2CCN(c3ccc(C(=O)NS(=O)(=O)c4ccc(N[C@H](CCN5CCOCC5)CSc5ccccc5)c(S(=O)(=O)C(F)(F)F)c4)cc3)CC2)C1 [Navitoclax] (partner 0.5 µM)", "assay": "relative viability (nuclei count vs DMSO), 5 days (fraction); higher = more cells survive", "details": "first compound 0.128 µM", "how_it_was_run": "as §1", "values": [{"cell line": "COR-L 105", "relative viability": 0.78}, {"cell line": "LOU-NH91", "relative viability": 0.768}, {"cell line": "NCI-H2170", "relative viability": 0.579}, {"cell line": "NCI-H2405", "relative viability": 0.729}, {"cell line": "HOP-62", "relative viability": 0.825}, {"cell line": "LU99A", "relative viability": 0.773}, {"cell line": "BEN", "relative viability": 0.0628}, {"cell line": "HARA", "relative viability": 1.14}, {"cell line": "HCC-78", "relative viability": 0.87}, {"cell line": "NCI-H322M", "relative viability": 1.18}, {"cell line": "LCLC-97TM1", "relative viability": 0.385}, {"cell line": "NCI-H2009", "relative viability": 1.2}, {"cell line": "A-427", "relative viability": 1.04}, {"cell line": "NCI-H441", "relative viability": 0.91}, {"cell line": "NCI-H1734", "relative viability": 0.744}, {"cell line": "NCI-H460", "relative viability": 1.03}, {"cell line": "NCI-H2347", "relative viability": 0.769}, {"cell line": "SK-LU-1", "relative viability": 0.544}, {"cell line": "NCI-H1395", "relative viability": 1.16}, {"cell line": "201T", "relative viability": 1.22}, {"cell line": "NCI-H1915", "relative viability": 0.758}, {"cell line": "HCC-827", "relative viability": 1.1}, {"cell line": "LXF-289", "relative viability": 0.967}, {"cell line": "NCI-H23", "relative viability": 0.716}, {"cell line": "NCI-H647", "relative viability": 1.06}, {"cell line": "CAL-12T", "relative viability": 1.27}, {"cell line": "NCI-H1651", "relative viability": 1.07}, {"cell line": "EPLC-272H", "relative viability": 0.983}, {"cell line": "NCI-H2228", "relative viability": 0.91}, {"cell line": "NCI-H1355", "relative viability": 0.928}]}]}
